Values of other authors in paper PMC5572761 (Journal of medicinal chemistry, 2017).

Tested on: α3β4 nAChR
Conditions: read-out: IC50 [nM] α3β4; cited from earlier work

α-conotoxin AuIB [Peptide 17]
IC50: 750 nM
